Where two headings read alike, the source gives them in different places.
Assays:
[1] = log P determination by HPLC (EEC Directive 79/831 Annex V.A8); type: physicochemical
Procedure: The measurements were carried out using an Agilent 1100 LC system with a 50*4.6 Zorbax Eclipse C18 1.8 μm column (oven temperature 55° C., flow rate 2.0 ml/min).
The following mobile phases were used:
Mobile phase A: acetonitrile+1000 μl of formic acid/l
Mobile phase B: Millipore water+900 μl of formic acid/l

[2] = system: caterpillars of the armyworm (Spodoptera frugiperda); assay: Spodoptera frugiperda test (SPODFR spray treatment); type: in vivo; details: Spodoptera frugiperda, foliar, read-out: effect in % (caterpillars killed)
Text: (§1) Solvent: 78.0 parts by weight of acetone

[3] = system: green peach aphid (Myzus persicae); assay: Myzus test (MYZUPE spray treatment); type: in vivo; details: Myzus persicae, foliar, read-out: effect in % (aphids killed)
Text: Solvent: 78 parts by weight of acetone
as §1

[4] = system: larvae of the mustard beetle (Phaedon cochleariae); assay: Phaedon test (PHAECO spray treatment); details: Phaedon cochleariae, in Brassica rapa, foliar, read-out: effect in % (beetle larvae killed)
[5] = reversed-phase HPLC, Zorbax Eclipse C18 column, determined by HPLC according to EEC Directive 79/831 Annex V.A8, read-out: log P
[6] = application rate 100 g/ha, maize leaf discs
[7] = application rate 100 g/ha, Chinese cabbage leaf discs

chromatographic logP [1, 5] | chromatographic logP ([1]; reversed-phase HPLC, Zorbax Eclipse C18 column, by HPLC according to EEC Directive 79/831 Annex V.A8, read-out: log P) | Compound | pest or weed control at 100 g/ha [2, 6] [%] | pest or weed control at 100 g/ha [3, 7] [%] | pest or weed control at 100 g/ha [4] [%] | chromatographic logP ([1]; log P) | pest or weed control at 100 g/ha ([2]; in Zea mays) [%] | pest or weed control at 100 g/ha ([3]; in Brassica rapa) [%]
3.87 | – | CCNC(=O)c1cc(C#N)cc(C)c1NC(=O)c1cc(Cn2nnc(C(F)(F)C(F)(F)F)n2)nn1-c1ccccc1Cl [Example 532] | ≥ 80 | ≥ 80 | ≥ 80 | – | – | –
3.36 | – | CCNC(=O)c1cc(Br)cc(C)c1NC(=O)c1cc(Cn2nnc(C(F)(F)F)n2)nn1-c1ncccc1Br [Example 411] | ≥ 80 | ≥ 80 | ≥ 80 | – | – | –
– | – | Cc1cc(C#N)cc(C(=O)NC2CCC2)c1NC(=O)c1cc(Cn2nnc(C(F)F)n2)nn1-c1ncccc1Cl [Example 270] | – | – | ≥ 80 | 2.7 | ≥ 80 | ≥ 80
– | – | Cc1cc(C#N)cc(C(=O)NC(C)C)c1NC(=O)c1cc(Cn2nnc(C(F)F)n2)nn1-c1ncccc1Cl [Example 266] | – | – | ≥ 80 | 2.58 | ≥ 80 | ≥ 80
– | – | Cc1cc(Cl)cc(C(=O)NC(C)C)c1NC(=O)c1cc(Cn2nnnc2C(F)F)nn1-c1ncccc1Cl [Example 462] | – | – | ≥ 80 | 2.75 | ≥ 80 | ≥ 80
– | – | Cc1cc(C#N)cc(C(=O)NCc2ccco2)c1NC(=O)c1cc(Cn2nnc(C(F)(F)F)n2)nn1-c1ncccc1Cl [Example 77] | – | – | ≥ 80 | 3.14 | ≥ 80 | ≥ 80
– | – | Cc1cc(C#N)cc(C(=O)NC(C)C2CC2)c1NC(=O)c1cc(Cn2nnnc2C(F)(F)C(F)(F)F)nn1-c1ncccc1Cl (stereo not drawn) [Example 203] | – | – | ≥ 80 | 3.48 | ≥ 80 | ≥ 80
3.58 | – | Cc1cc(C#N)cc(C(=O)NC(C)(C)C)c1NC(=O)c1cc(Cn2nnnc2C(F)(F)F)nn1-c1ccccc1C(F)(F)F [Example 488] | ≥ 80 | ≥ 80 | ≥ 80 | – | – | –
– | 3.36 | CCNC(=O)c1cc(C#N)cc(C)c1NC(=O)c1cc(Cn2nnc(C(F)(F)F)n2)nn1-c1ccccc1Cl [Example 342] | ≥ 80 | ≥ 80 | ≥ 80 | – | – | –
2.88 | – | CCNC(=O)c1cc(Cl)cc(C)c1NC(=O)c1cc(Cn2nnnc2C(F)(F)F)nn1-c1ncccc1Br [Example 494] | ≥ 80 | ≥ 80 | ≥ 80 | – | – | –
– | – | Cc1cc(C#N)cc(C(N)=O)c1NC(=O)c1cc(Cn2nnc(C(F)(C(F)(F)F)C(F)(F)F)n2)nn1-c1ncccc1Cl [Example 372] | – | – | ≥ 80 | 3.13 | ≥ 80 | ≥ 80
– | – | Cc1cc(C#N)cc(C(=O)NC(C)C)c1NC(=O)c1cc(Cn2nnnc2C(F)F)nn1-c1ncccc1Cl [Example 463] | – | – | ≥ 80 | 2.36 | ≥ 80 | ≥ 80
– | – | Cc1cc(Br)cc(C(=O)NC(C)(C)C)c1NC(=O)c1cc(Cn2nnc(C(F)(F)F)n2)nn1-c1ncccc1Cl [Example 114] | – | – | ≥ 80 | 4 | ≥ 80 | ≥ 80
– | – | CSC[C@H](C)NC(=O)c1cc(Cl)cc(C)c1NC(=O)c1cc(Cn2nnc(C(F)(F)F)n2)nn1-c1ncccc1Cl [Example 41] | – | – | ≥ 80 | 3.68 | ≥ 80 | ≥ 80
2.51 | – | Cc1cc(Br)cc(C(N)=O)c1NC(=O)c1cc(Cn2nnnc2C(F)(F)F)nn1-c1ncccc1Br [Example 498] | ≥ 80 | ≥ 80 | ≥ 80 | – | – | –
– | – | CNC(=O)c1cc(Cl)cc(C)c1NC(=O)c1cc(C(C)n2nnc(C(F)(F)F)n2)nn1-c1ncccc1Cl (stereo not drawn) [Example 543] | – | – | ≥ 80 | 3.26 | ≥ 80 | ≥ 80
3.46 | – | Cc1cc(C#N)cc(C(=O)NC(C)C)c1NC(=O)c1cc(Cn2nnc(C(F)(F)C(F)(F)F)n2)nn1-c1ncccc1Br [Example 423] | ≥ 80 | ≥ 80 | ≥ 80 | – | – | –
– | – | Cc1cc(Br)cc(C(=O)NC(C)(C)C)c1NC(=O)c1cc(Cn2nnc(C(F)(F)C(F)(F)F)n2)nn1-c1ncccc1Cl [Example 219] | – | – | ≥ 80 | 4.36 | ≥ 80 | ≥ 80
– | – | Cc1cc(C#N)cc(C(N)=O)c1NC(=O)c1cc(C(C)n2nnc(C(F)(F)F)n2)nn1-c1ncccc1Cl (stereo not drawn) [Example 437] | – | – | ≥ 80 | 2.66 | ≥ 80 | ≥ 80
– | – | CNC(=O)c1cc(I)cc(C)c1NC(=O)c1cc(Cn2nnc(C(F)(C(F)(F)F)C(F)(F)F)n2)nn1-c1ncccc1Cl [Example 377] | – | – | ≥ 80 | 3.94 | ≥ 80 | ≥ 80
– | – | Cc1cc(I)cc(C(N)=O)c1NC(=O)c1cc(Cn2nnc(C(F)(F)F)n2)nn1-c1ncccc1Cl [Example 67] | – | – | ≥ 80 | 2.95 | ≥ 80 | ≥ 80
– | – | Cc1cc(C#N)cc(C(=O)NC(C)C(F)(F)F)c1NC(=O)c1cc(Cn2nnc(C(F)(F)F)n2)nn1-c1ncccc1Cl (stereo not drawn) [Example 433] | – | – | ≥ 80 | 3.25 | ≥ 80 | ≥ 80
– | – | Cc1cc(C#N)cc(C(=O)NC2CCC2)c1NC(=O)c1cc(Cn2nnnc2C(F)(F)F)nn1-c1ncccc1Cl [Example 186] | – | – | ≥ 80 | 2.83 | ≥ 80 | ≥ 80
3.54 | – | Cc1cc(I)cc(C(=O)NC(C)C)c1NC(=O)c1cc(Cn2nnnc2C(F)(F)F)nn1-c1ncccc1C(F)(F)F [Example 450] | ≥ 80 | ≥ 80 | ≥ 80 | – | – | –
2.8 | – | Cc1cc(C#N)cc(C(N)=O)c1NC(=O)c1cc(Cn2nnc(C(F)(F)C(F)(F)F)n2)nn1-c1ncccc1Br [Example 424] | ≥ 80 | ≥ 80 | ≥ 80 | – | – | –
– | – | Cc1cc(C#N)cc(C(=O)NC2CCC2)c1NC(=O)c1cc(Cn2nnc(C(F)(F)F)n2)nn1-c1ncccc1Cl [Example 24] | – | – | ≥ 80 | 3.18 | ≥ 80 | ≥ 80
– | – | COC(C)(C)CNC(=O)c1cc(C#N)cc(C)c1NC(=O)c1cc(Cn2nnc(C(F)(F)F)n2)nn1-c1ncccc1Cl [Example 95] | – | – | ≥ 80 | 3.12 | ≥ 80 | ≥ 80

Reference: patent US8324390B2, “Tetrazole-substituted anthranilamides as pesticides” (Bayer CropScience AG, priority 2008, dated 2012)
